From ChEMBL document CHEMBL2440076, “New triarylpyrazoles as broad-spectrum anticancer agents: design, synthesis, and biological evaluation” (Eur J Med Chem, 2013)

How the values were obtained:
Type in all cases: functional
[1] = tested on: SK-MEL-2; assay: Growth inhibition of human SK-MEL-2 cells assessed as cell growth at 3X10'-5 M after 48 hrs by sulforhodamine B assay; conditions: SK-MEL-2, 48 h, read-out: Activity
[2] = tested on: CAKI-1; assay: Growth inhibition of human CAKI-1 cells assessed as cell growth at 3X10'-8 M after 48 hrs by sulforhodamine B assay; conditions: CAKI-1, 48 h, read-out: Activity
[3] = tested on: SN12C; assay: Growth inhibition of human SN12C cells assessed as cell growth at 3X10'-9 M after 48 hrs by sulforhodamine B assay; conditions: read-out: Activity
[4] = tested on: UACC-62; assay: Growth inhibition of human UACC62 cells assessed as cell growth at 3X10'-5 M after 48 hrs by sulforhodamine B assay; conditions: UACC-62, 48 h, read-out: Activity
[5] = tested on: MDA-MB-231; assay: Growth inhibition of human MDA-MB-231 cells assessed as cell growth at 3X10'-8 M after 48 hrs by sulforhodamine B assay; conditions: MDA-MB-231, 48 h, read-out: Activity
[6] = tested on: HT-29; assay: Growth inhibition of human HT-29 cells assessed as cell growth at 3X10'-9 M after 48 hrs by sulforhodamine B assay; conditions: HT-29, 48 h, read-out: Activity
[7] = tested on: UACC-257; assay: Growth inhibition of human UACC257 cells assessed as cell growth at 3X10'-8 M after 48 hrs by sulforhodamine B assay; conditions: UACC-257, 48 h, read-out: Activity
[8] = tested on: DU-145; assay: Growth inhibition of human DU145 cells assessed as cell growth at 3X10'-6 M after 48 hrs by sulforhodamine B assay; conditions: DU-145, 48 h, read-out: Activity
[9] = tested on: UACC-257; assay: Growth inhibition of human UACC257 cells assessed as cell growth at 3X10'-9 M after 48 hrs by sulforhodamine B assay; conditions: UACC-257, 48 h, read-out: Activity
[10] = tested on: ACHN; assay: Growth inhibition of human ACHN cells assessed as cell growth at 3X10'-7 M after 48 hrs by sulforhodamine B assay; conditions: read-out: Activity
[11] = tested on: HCT-15; assay: Growth inhibition of human HCT15 cells assessed as cell growth at 3X10'-5 M after 48 hrs by sulforhodamine B assay; conditions: HCT-15, 48 h, read-out: Activity
[12] = tested on: OVCAR-5; assay: Growth inhibition of human OVCAR5 cells assessed as cell growth at 3X10'-9 M after 48 hrs by sulforhodamine B assay; conditions: OVCAR-5, 48 h, read-out: Activity
[13] = tested on: SK-MEL-5; assay: Growth inhibition of human SK-MEL-5 cells assessed as cell growth at 3X10'-5 M after 48 hrs by sulforhodamine B assay; conditions: SK-MEL-5, 48 h, read-out: Activity
[14] = tested on: SK-MEL-5; assay: Growth inhibition of human SK-MEL-5 cells assessed as cell growth at 3X10'-8 M after 48 hrs by sulforhodamine B assay; conditions: SK-MEL-5, 48 h, read-out: Activity
[15] = tested on: SF-539; assay: Growth inhibition of human SF539 cells assessed as cell growth at 3X10'-5 M after 48 hrs by sulforhodamine B assay; conditions: SF-539, 48 h, read-out: Activity
[16] = tested on: MOLT-4; assay: Growth inhibition of human MOLT4 cells assessed as cell growth at 3X10'-8 M after 48 hrs by sulforhodamine B assay; conditions: MOLT-4, 48 h, read-out: Activity
[17] = Growth inhibition of human NCI-ADR-RES cells assessed as cell growth at 3X10'-7 M after 48 hrs by sulforhodamine B assay; conditions: read-out: Activity
[18] = tested on: PC-3; assay: Growth inhibition of human PC3 cells assessed as cell growth at 3X10'-8 M after 48 hrs by sulforhodamine B assay; conditions: PC-3, 48 h, read-out: Activity
[19] = tested on: HOP-62; assay: Growth inhibition of human HOP62 cells assessed as cell growth at 3X10'-8 M after 48 hrs by sulforhodamine B assay; conditions: HOP-62, 48 h, read-out: Activity
[20] = tested on: A498; assay: Growth inhibition of human A498 cells assessed as cell growth at 3X10'-6 M after 48 hrs by sulforhodamine B assay; conditions: A498, 48 h, read-out: Activity
[21] = tested on: COLO 205; assay: Growth inhibition of human COLO205 cells assessed as cell growth at 3X10'-7 M after 48 hrs by sulforhodamine B assay; conditions: COLO 205, 48 h, read-out: Activity
[22] = tested on: HOP-92; assay: Growth inhibition of human HOP92 cells assessed as cell growth at 3X10'-7 M after 48 hrs by sulforhodamine B assay; conditions: HOP-92, 48 h, read-out: Activity
[23] = tested on: NCI-H226; assay: Growth inhibition of human NCI-H226 cells assessed as cell growth at 3X10'-7 M after 48 hrs by sulforhodamine B assay; conditions: NCI-H226, 48 h, read-out: Activity
[24] = tested on: BT-549; assay: Growth inhibition of human BT549 cells assessed as cell growth at 3X10'-8 M after 48 hrs by sulforhodamine B assay; conditions: BT-549, 48 h, read-out: Activity
[25] = tested on: HL-60(TB); assay: Growth inhibition of human HL-60(TB) cells assessed as cell growth at 3X10'-8 M after 48 hrs by sulforhodamine B assay; conditions: HL-60, 48 h, read-out: Activity
[26] = tested on: U-251; assay: Growth inhibition of human U251 cells assessed as cell growth at 3X10'-6 M after 48 hrs by sulforhodamine B assay; conditions: U-251, 48 h, read-out: Activity
[27] = tested on: SR; assay: Growth inhibition of human SR cells assessed as cell growth at 3X10'-6 M after 48 hrs by sulforhodamine B assay; conditions: read-out: Activity
[28] = tested on: A549; assay: Growth inhibition of human A549/ATCC cells assessed as cell growth at 3X10'-5 M after 48 hrs by sulforhodamine B assay; conditions: A549, 48 h, read-out: Activity
[29] = tested on: MOLT-4; assay: Growth inhibition of human MOLT4 cells assessed as cell growth at 3X10'-5 M after 48 hrs by sulforhodamine B assay; conditions: MOLT-4, 48 h, read-out: Activity
[30] = tested on: OVCAR-4; assay: Growth inhibition of human OVCAR4 cells assessed as cell growth at 3X10'-8 M after 48 hrs by sulforhodamine B assay; conditions: OVCAR-4, 48 h, read-out: Activity

With `O=C(Nc1cccc(-n2cc(-c3ccncc3)c(-c3ccc(Cl)c(O)c3)n2)c1)Nc1ccc(Cl)c(Cl)c1` the growth at 30 µM [1] was -50%, the growth at 0.03 µM [2] was 94% and the growth at 0.003 µM [3] was 93%. It also gave a growth at 30 µM [4] of -53%, a growth at 0.03 µM [5] of 100% and a growth at 0.003 µM [6] of 100%. For the same molecule, the growth at 0.03 µM [7] was 93%, the growth at 3 µM [8] was 22% and the growth at 0.003 µM [9] was 95%. The growth at 0.3 µM [10] was 96%, the growth at 30 µM [11] was -1% and the growth at 0.003 µM [12] was 96%. For the same molecule, the growth at 30 µM [13] was -95%, the growth at 0.03 µM [14] was 96% and the growth at 30 µM [15] was -34%. For the same molecule, the growth at 0.03 µM [16] was 99%, the growth at 0.3 µM [17] was 102% and the growth at 0.03 µM [18] was 98%. For the same molecule, the growth at 0.03 µM [19] was 96%, the growth at 3 µM [20] was -1% and the growth at 0.3 µM [21] was 104%. For the same molecule, the growth at 0.3 µM [22] was 86%, the growth at 0.3 µM [23] was 94% and the growth at 0.03 µM [24] was 102%. For the same molecule, the growth at 0.03 µM [25] was 101%, the growth at 3 µM [26] was 25% and the growth at 3 µM [27] was 11%. It also gave a growth at 30 µM [28] of 8%, a growth at 30 µM [29] of 6% and a growth at 0.03 µM [30] of 102%.
